The test system of data set [1] is BCR-ABL-driven K-562 xenografts. As to the kind of experiment: K-562 xenograft experiment. Type of data set: in vivo, C.B.17/SCID mice. Conditions: 10 mg kg^-1 i.p., three times a week for two weeks. How it is done:
(§1) Based on this promising in vitro data, the antitumor activity of our novel cobalt(III) complexes Co(acac)2LPon and Co(Meacac)2LPon was evaluated in xenograft mouse models. As a first in vivo experiment, BCR-ABL-driven K-562 cells were injected subcutaneously (s.c.) and treated intraperitoneally (i.p.) with the test compounds at 10 mg kg^−1 or the respective amount of solvent three times a week, for two weeks. Treatment with our novel derivatives was well tolerated and even after repeated i.p. applications no substantial body weight loss was observed (Fig. S13A ^†). […] Consequently, anticancer activity of Co(acac)2LPon was also investigated against FGFR3-driven UM-UC-14 xenografts using the identical treatment regime.
(§2) Fig. 11 In vivo anticancer activity of the investigated cobalt(III) complexes. […] Tumor sizes were evaluated by caliper measurement. […] Statistical significance was calculated by two-way ANOVA with Sidak multiple comparison test with p < 0.05(*); <0.01 (**).
(§3) Eight-to nine-week-old male C.B.17/SCID mice were bread in-house (originally Harlan) and were kept in pathogen-free conditions and controlled environment with 12 h light–dark cycle. […] Tumor growth was evaluated by daily recording of tumor size by caliper measurement. […]

The subject of data set [2] is UM-UC-14 cells. The data set is described as follows: ligand release by UV fluorescence microscopy. Conditions: 10 μM, 24 h, UM-UC-14, fluorescence microscopy. The class given is cell-based, human. The procedure:
The enhanced stability of Co(acac)2LPon under normoxia and its hypoxia-induced ligand release was subsequently confirmed by fluorescence microscopy. Fluorescence intensities indicated a ∼2.8-fold decreased stability of the cobalt(III) complex under hypoxic vs. normoxic cell culture conditions.
UM-UC-14 cells were seeded (2.5 × 10^5 cells per well) in 12-well plates and after 24 h recovery treated with 10 μM of compounds. After 24 h incubation, the drug solutions were removed, cells were washed with PBS and microphotographs of the different treatments were taken using UV fluorescence microscopy (Nikon Eclipse Ti2 microscope with a DAPI filter and a high-pressure mercury lamp) and a 20× objective. The level of cellular fluorescence was determined from fluorescence microscopy images using ImageJ software.
Figure S9: Ligand release of Co(acac)2LPon under normoxic and hypoxic cell culture conditions in comparison to LPon using UV fluorescence microscopy. UM-UC-14 cells were incubated with 10 µM of compounds for 24 h. Images of the different treatments were taken by UV fluorescence microcopy (20X objective) and the corrected total cell fluorescence was evaluated using ImageJ software. Data in Figure S9B are given as means ± SD of ten analyzed microphotographs per compound. Statistical significance was calculated by unpaired t test with p < .05(*). […]

Data set [3] concerns FGFR3-driven UM-UC-14 xenografts. The data set is described as follows: UM-UC-14 xenograft experiment. Type of data set: in vivo, C.B.17/SCID mice. Conditions: 10 mg kg^-1 i.p., three times a week for two weeks. How it is done: as §1, §2, §3
Data set [4] in a line: cyclic voltammetry. Type of data set: physicochemical. Conditions: DMF, 0.2 M [n-Bu4N][BF4], 1.5 mM complex, scan rate 100 mV s^-1. The procedure: Since the redox potential is a crucial characteristic for the activation of cobalt(III)-based prodrugs systems, we investigated the novel complexes by cyclic voltammetry in comparison to Co(acac)2LEGFR. Measurements were performed in dimethylformamide (DMF) (+0.2 M [n-Bu4N][BF4]) at a scan speed of 100 mV s^−1. […] Even at a higher scan speed of 1000 mV s^−1, the redox processes were still completely irreversible for all complexes (Fig. S5 ^†).
The compounds were dissolved in DMF (+0.2 M [n-Bu4N][BF4]) to obtain a final concentration of 1.5 mM. Electrochemical experiments were conducted on an EG&G PARC 273A potentiostat/galvanostat with a scan rate of 100–1000 mV s^−1 at room temperature. Argon was bubbled through the solution before every measurement to remove oxygen. A three-electrode configuration cell was used with a glassy carbon electrode as working electrode, which was polished before every measurement. The reference electrode was Ag/Ag^+/ACN (10 mM AgNO3) and the auxiliary electrode was a platinum wire. The potentials were referenced to an internal standard redox couple of ferrocenium/ferrocene and calculated to the NHE (E1/2 = +0.72 V vs. NHE).[63] […] Redox potentials measured relative to the Ag/AgCl/KCl (3.5 M) reference electrode and converted to the NHE using +0.205 V. Measurements were at least repeated three times and the mean values were calculated.

`CC(=O)C=C(C)[O-].CC(=O)C=C(C)[O-].Cc1ccc(C(=O)Nc2ccc(CNCCN)c(C(F)(F)F)c2)cc1C#Cc1cnc2cccnn12.O=C(O)C(F)(F)F.[Co+3]` [Co(acac)2LPon, Bis(2,4-pentanedionato)N-(4-(((2-aminoethyl)amino)methyl)-3-(trifluoromethyl)phenyl)-3-(imidazo[1,2-b]pyridazin-3-ylethynyl)-4-methylbenzamide cobalt(III) 2,2,2-trifluoroacetate]: the “tumor growth vs solvent controls” value in data set [1] was “significantly reduced tumor growth”. Further, the “fluorescence intensity change (decreased stability) hypoxic vs. normoxic” value in data set [2] is recorded as roughly 2.8 fold. Besides, in data set [3], the body weight result is “without significant impact on body weight” and the “tumor volumes vs control” value is on record as “significant reduction of tumor volumes”. For the same molecule, the “cathodic peak potential (Co(III) to Co(II), irreversible)” value in data set [4] was −315 mV vs. NHE.

The record behind these values is article PMC8129988 (Inorganic Chemistry Frontiers, 2021).
